Results published in US11352340B2, “Pyridine and pyridimine compounds as PI3K-gamma inhibitors” (Incyte Corporation, priority 2016, dated 2022).
Structures can show the parent of a compound that is named as a salt. Where two headings read alike, the source gives them in different places.

Columns and labels:
[1] = biological target: PI3Kδ (p110δ/p85α) Recombinant Human Protein (Homo sapiens (Human), UniProt O00329); experiment: PI3Kδ Scintillation Proximity Assay; type: biochemical; conditions: read-out: PI3K-delta SPA IC50
Outline: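 IC50 was fitted to percent solvent-control activity from SPA scintillation counts after WGA bead capture of 33P-labelled lipid product. Reaction: 120 min, room temperature, 3.4 nM p110δ/p85α, 20 μM PIP2, 2 μM ATP with tracer, MOPS pH 6.7 buffer containing MgCl2, DTT, CHAPS, 2% DMSO.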

[2] = system: Phosphorylated Ribosomal Protein S6 (RPS6) in THP-1 cells; experiment: THP-1 RPS6 ELISA Assay; type: cell-based, Human; conditions: MCP-1 stimulated, phospho-RPS6 ELISA, read-out: THP p-RPS6 ELISA IC50
Protocol: Example A. THP-1 RPS6 ELISA Assay
To measure the Phosphorylated Ribosomal Protein S6 (RPS6) in cell lysates, THP-1 cells (Human Acute Monocytic Leukemia) are purchased from ATCC (Manassas, Va.) and maintained in RPMI with 10% FBS (Gibco/Life Technologies, Carlsbad, Calif.). For the assay, THP-1 cells are serum starved overnight in RPMI, then plated in RPMI (2×10^5 cells/well in 90 μL) into 96-well flat-bottom tissue culture treated plates (Corning, Corning, N.Y.), in the presence or absence of a concentration range of test compounds. Covered plates are incubated for 2 hours at 37° C., 5% CO2 then treated with or without 10 nM MCP-1 (MYBioSource, San Diego, Calif.) for 15 minutes at 37° C., 5% CO2. Plates are centrifuged at 1600 RPM and supernatants are removed. Cells are lysed in Lysis Buffer (Cell Signaling, Danvers, Mass.) with Protease Inhibitor (Calbiochem/EMD, Germany), PMSF (Sigma, St Louis Mo.), HALTS (Thermo Fisher, Rockford, Ill.) for 30 min on wet ice. Cell lysates are frozen at −80° C. before testing. The lysates are tested in the Human/Mouse/Rat Phospho-RPS6 ELISA (R&D Systems, Inc. Minn, Minn.). The plate is measured using a microplate reader (SpectraMax M5—Molecular Devices, LLC Sunnyvale, Calif.) set to 450 nm with a wavelength correction of 540. IC50 determination is performed by fitting the curve of inhibitor percent inhibition versus the log of the inhibitor concentration using the GraphPad Prism 5.0 software.

[3] = biological target: PI3Kγ (p110γ) Recombinant Human Protein (Homo sapiens (Human), UniProt P48736); experiment: PI3K-γ Scintillation Proximity Assay; type: biochemical; conditions: read-out: PI3K-gamma SPA IC50
Outline: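 Radiometric SPA: reaction at room temperature for 120 min using 2 μM ATP with [γ-33P]ATP tracer, 20 μM PIP2 substrate and 13 nM human PI3Kγ (MOPS pH 6.7, MgCl2, DTT, CHAPS; 2% DMSO). EDTA quench with WGA beads, scintillation count, and IC50 fit of percent-of-control activity.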

Sequence of PI3Kγ (p110γ) Recombinant Human Protein (P48736 whole entry): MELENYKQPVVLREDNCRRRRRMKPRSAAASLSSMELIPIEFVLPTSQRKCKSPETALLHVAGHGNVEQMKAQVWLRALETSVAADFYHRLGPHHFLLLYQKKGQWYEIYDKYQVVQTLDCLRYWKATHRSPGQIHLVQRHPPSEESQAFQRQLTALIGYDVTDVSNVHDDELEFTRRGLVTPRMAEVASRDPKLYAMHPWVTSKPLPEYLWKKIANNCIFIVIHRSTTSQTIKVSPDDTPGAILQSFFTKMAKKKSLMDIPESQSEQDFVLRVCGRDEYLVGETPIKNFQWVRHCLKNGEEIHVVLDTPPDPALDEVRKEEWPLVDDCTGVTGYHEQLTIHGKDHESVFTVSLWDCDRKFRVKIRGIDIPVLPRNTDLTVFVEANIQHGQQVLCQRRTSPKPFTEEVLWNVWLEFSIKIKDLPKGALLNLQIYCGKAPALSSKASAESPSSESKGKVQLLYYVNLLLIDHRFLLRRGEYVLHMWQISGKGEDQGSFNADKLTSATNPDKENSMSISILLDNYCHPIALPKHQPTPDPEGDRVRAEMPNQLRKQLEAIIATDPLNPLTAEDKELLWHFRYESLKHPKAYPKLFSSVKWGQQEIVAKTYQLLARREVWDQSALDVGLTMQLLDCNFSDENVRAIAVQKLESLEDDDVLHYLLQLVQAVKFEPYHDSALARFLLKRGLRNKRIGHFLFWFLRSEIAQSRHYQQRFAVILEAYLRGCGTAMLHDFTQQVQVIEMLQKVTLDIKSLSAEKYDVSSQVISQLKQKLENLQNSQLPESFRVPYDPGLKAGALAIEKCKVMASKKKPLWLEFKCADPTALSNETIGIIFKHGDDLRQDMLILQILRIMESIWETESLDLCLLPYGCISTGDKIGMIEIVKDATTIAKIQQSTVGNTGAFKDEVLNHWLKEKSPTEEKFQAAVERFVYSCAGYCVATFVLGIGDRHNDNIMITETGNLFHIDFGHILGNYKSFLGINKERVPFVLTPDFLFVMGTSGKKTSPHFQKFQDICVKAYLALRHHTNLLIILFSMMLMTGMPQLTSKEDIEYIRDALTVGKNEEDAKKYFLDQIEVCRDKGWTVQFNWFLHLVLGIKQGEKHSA
Sequence of PI3Kδ (p110δ/p85α) Recombinant Human Protein (O00329 whole entry): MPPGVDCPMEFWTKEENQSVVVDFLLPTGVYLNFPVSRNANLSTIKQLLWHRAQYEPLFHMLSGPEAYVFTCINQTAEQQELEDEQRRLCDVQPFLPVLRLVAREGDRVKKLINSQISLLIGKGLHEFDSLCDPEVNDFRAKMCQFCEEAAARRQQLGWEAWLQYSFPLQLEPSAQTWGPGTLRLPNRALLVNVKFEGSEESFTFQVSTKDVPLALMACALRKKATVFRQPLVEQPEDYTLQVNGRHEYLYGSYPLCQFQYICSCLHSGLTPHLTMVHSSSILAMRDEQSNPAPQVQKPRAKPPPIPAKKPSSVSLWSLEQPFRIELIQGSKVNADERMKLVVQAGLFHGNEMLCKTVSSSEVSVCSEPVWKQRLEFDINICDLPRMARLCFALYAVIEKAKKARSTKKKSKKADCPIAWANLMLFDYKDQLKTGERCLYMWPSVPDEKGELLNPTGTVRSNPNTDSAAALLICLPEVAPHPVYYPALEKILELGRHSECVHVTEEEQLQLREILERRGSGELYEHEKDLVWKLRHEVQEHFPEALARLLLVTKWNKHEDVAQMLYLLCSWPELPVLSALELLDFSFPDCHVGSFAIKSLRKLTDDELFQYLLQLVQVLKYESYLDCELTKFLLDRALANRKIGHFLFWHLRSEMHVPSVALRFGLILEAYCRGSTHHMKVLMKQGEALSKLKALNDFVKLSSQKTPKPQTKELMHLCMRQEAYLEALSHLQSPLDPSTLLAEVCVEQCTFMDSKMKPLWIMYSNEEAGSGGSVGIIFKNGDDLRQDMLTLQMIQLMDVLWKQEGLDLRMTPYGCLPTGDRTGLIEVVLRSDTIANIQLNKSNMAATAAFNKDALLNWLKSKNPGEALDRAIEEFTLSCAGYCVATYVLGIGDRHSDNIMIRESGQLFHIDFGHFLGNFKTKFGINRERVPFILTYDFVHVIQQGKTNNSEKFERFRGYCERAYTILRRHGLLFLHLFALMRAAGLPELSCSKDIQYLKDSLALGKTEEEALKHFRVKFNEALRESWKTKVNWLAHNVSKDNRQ
Sequence of PI3Kδ (p110δ/p85α) Recombinant Human Protein (P27986 whole entry partner): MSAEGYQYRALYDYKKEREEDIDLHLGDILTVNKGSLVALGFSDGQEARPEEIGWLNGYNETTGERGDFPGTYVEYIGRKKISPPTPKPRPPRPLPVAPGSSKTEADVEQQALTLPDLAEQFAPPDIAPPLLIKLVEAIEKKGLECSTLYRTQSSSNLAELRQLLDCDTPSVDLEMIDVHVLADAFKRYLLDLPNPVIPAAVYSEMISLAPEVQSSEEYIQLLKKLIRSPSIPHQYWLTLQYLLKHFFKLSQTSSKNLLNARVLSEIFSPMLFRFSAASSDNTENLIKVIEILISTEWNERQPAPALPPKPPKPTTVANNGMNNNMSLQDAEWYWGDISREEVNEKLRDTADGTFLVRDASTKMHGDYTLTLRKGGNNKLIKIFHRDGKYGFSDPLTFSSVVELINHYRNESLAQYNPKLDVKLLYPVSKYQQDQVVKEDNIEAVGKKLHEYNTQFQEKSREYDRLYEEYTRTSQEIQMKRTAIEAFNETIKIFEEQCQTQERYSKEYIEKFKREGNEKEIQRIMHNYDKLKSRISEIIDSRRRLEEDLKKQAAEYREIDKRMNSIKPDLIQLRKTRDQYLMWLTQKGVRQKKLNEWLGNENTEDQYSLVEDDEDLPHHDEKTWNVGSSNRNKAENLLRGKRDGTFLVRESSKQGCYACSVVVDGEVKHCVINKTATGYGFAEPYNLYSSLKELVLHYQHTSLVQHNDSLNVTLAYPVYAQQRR

Row | SMILES | IC50 [1] [nM] | IC50 ([2]; Homo sapiens) [nM] | IC50 [3] [nM] | IC50 [2] [nM]
1 | CS(=O)(=O)c1cncc(-c2ccnc(-c3ncc(C4CCCCC4)[nH]3)c2)c1 [Example 106, 2′-(5-Cyclohexyl-1H-imidazol-2-yl)-5-(methylsulfonyl)-3,4′-bipyridine Trifluoroacetate Salt] | ≤ 50 | ≤ 300 | ≤ 50 | 
2 | CS(=O)(=O)c1cncc(-c2ccnc(-c3ncc(C4CC4)[nH]3)c2)c1 [Example 112, 2′-(5-Cyclopropyl-1H-imidazol-2-yl)-5-(methylsulfonyl)-3,4′-bipyridine trifluoroacetate salt] | ≤ 50 | 300 to 1000 | ≤ 50 | 
3 | Cc1nc(-c2cc(-c3cncc(S(C)(=O)=O)c3)ccn2)[nH]c1C [Example 108, 2′-(4,5-Dimethyl-1H-imidazol-2-yl)-5-(methylsulfonyl)-3,4′-bipyridine trifluoroacetate salt] | ≤ 50 | ≤ 300 | ≤ 50 | 
4 | Cc1nc(-c2cc(-c3cncc(C(=O)NC4CCOCC4)c3)ccn2)[nH]c1C [Example 160, 2′-(4,5-Dimethyl-1H-imidazol-2-yl)-N-(tetrahydro-2H-pyran-4-yl)-3,4′-bipyridine-5-carboxamide trifluoroacetate salt] | ≤ 500 | 1000 to 5000 | ≤ 50 | 
5 | CC(=O)N1CCN(C(=O)c2cncc(-c3ccnc(-c4nc(C)c(C)[nH]4)c3)c2)CC1 [Example 159, 1-(4-(2′-(4,5-Dimethyl-1H-imidazol-2-yl)-3,4′-bipyridine-5-carbonyl)piperazin-1-yl)ethanone trifluoroacetate salt] | ≤ 100 | 1000 to 5000 | ≤ 50 | 
6 | CS(=O)(=O)c1cncc(-c2ccnc(-c3nc(C4CCCCC4)c(N)[nH]3)c2)c1 [Example 120, 4-Cyclohexyl-2-[5-(methylsulfonyl)-3,4′-bipyridin-2′-yl]-1H-imidazol-5-amine Trifluoroacetate Salt] | ≤ 50 | > 5000 | ≤ 100 | 
7 | Cc1nc(-c2cc(-c3cncc(N4CCOCC4)c3)ccn2)[nH]c1C [Example 98, 4-(2′-(4,5-Dimethyl-1H-imidazol-2-yl)-3,4′-bipyridin-5-yl)morpholine trifluoroacetate salt] | ≤ 100 | ≤ 300 | ≤ 100 | 
8 | Clc1ccc(Cn2cc(-c3ccnc(-c4ncc(-c5ccccc5)[nH]4)c3)cn2)cc1 [Example 1, 4-[1-(4-Chlorobenzyl)-1H-pyrazol-4-yl]-2-(5-phenyl-1H-imidazol-2-yl)pyridine Trifluoroacetate Salt] | > 500 | > 5000 | ≤ 50 | 
9 | Cc1nc(-c2cc(-c3cncc(C(=O)N4CC[C@@H](O)C4)c3)ccn2)[nH]c1C [Example 163, (R)-(2′-(4,5-Dimethyl-1H-imidazol-2-yl)-3,4′-bipyridin-hydroxypyrrolidin-1-yl)methanone trifluoroacetate salt] | ≤ 50 |  | ≤ 50 | ≤ 300
10 | Cc1[nH]c(-c2cc(-c3cncc(S(C)(=O)=O)c3)ccn2)nc1C(=O)N[C@H]1CCOC1 [Example 255, 5-Methyl-2-[5-(methylsulfonyl)-3,4′-bipyridin-2′-yl]-N-[(3,S)-tetrahydrofuran-3-yl]-lH-imidazole-4-carboxamide trifluoroacetate salt] | ≤ 50 |  | ≤ 50 | 300 to 1000
11 | CCn1cc(-c2ccnc(-c3ncc(-c4ccccc4)[nH]3)c2)cn1 [Example 10, 4-(1-Ethyl-1H-pyrazol-4-yl)-2-(5-phenyl-1H-imidazol-2-yl)pyridine trifluoroacetate salt] | ≤ 500 | 1000 to 5000 | ≤ 500 | 
12 | Cc1nc(-c2cc(-c3cncc(C(=O)N4CCC(F)(F)C4)c3)ccn2)[nH]c1C [Example 173, 5-[(3,3-Difluoropyrrolidin-1-yl)carbonyl]-2′-(4,5-dimethyl-1H-imidazol-2-yl)-3,4′-bipyridine trifluoroacetate salt] | ≤ 50 | ≤ 300 | ≤ 50 | 
13 | CS(=O)(=O)c1cncc(-c2ccnc(-c3ncc(-c4ccccn4)[nH]3)c2)c1 [Example 118, 5-(Methylsulfonyl)-2′-(5-(pyridin-2-yl)-1H-imidazol-2-yl)-3,4′-bipyridine] | ≤ 50 | 300 to 1000 | ≤ 50 | 

Second part, led by results:

Row | IC50 [1] [nM] | IC50 ([2]; Homo sapiens) [nM] | IC50 [3] [nM] | SMILES | IC50 [2] [nM]
14 | ≤ 500 | 1000 to 5000 | ≤ 50 | Cc1nc(-c2cc(-c3cncc(C(=O)NCC4CCCC4)c3)ccn2)[nH]c1C [Example 207, N-(Cyclopentylmethyl)-2′-(4,5-dimethyl-1H-imidazol-2-yl)-3,4′-bipyridine-5-carboxamide trifluoroacetate salt] | 
15 | ≤ 50 | ≤ 300 | ≤ 50 | Cc1[nH]c(-c2cc(-c3cncc(S(C)(=O)=O)c3)ccn2)nc1C(=O)NC1CCCC1 [Example 243, N-Cyclopentyl-5-methyl-2-[5-(methylsulfonyl)-3,4′-bipyridin-2′-yl]-1H-imidazole-4-carboxamide] | 
16 | ≤ 100 | 300 to 1000 | ≤ 50 | Cc1nc(-c2cc(-c3cncc(C(=O)N4CC[C@H]5CCCC[C@@H]5C4)c3)ccn2)[nH]c1C [Example 187, 2′-(4,5-Dimethyl-1H-imidazol-2-yl)-5-[(4aR,8aS)-octahydroisoquinolin-2(1H)-ylcarbonyl]-3,4′-bipyridine trifluoroacetate salt] | 
17 | ≤ 50 | ≤ 300 | ≤ 50 | Cc1nc(-c2cc(-c3cncc(C(=O)N4CCC(C(F)(F)F)C4)c3)ccn2)[nH]c1C (racemic) [Example 178, 2′-(4,5-Dimethyl-1H-imidazol-2-yl)-5-{[3-(trifluoromethyl)pyrrolidin-1-yl]carbonyl}-3,4′-bipyridine trifluoroacetate salt] | 
18 | ≤ 500 | > 5000 | ≤ 100 | Cc1nc(-c2cc(C3=CCCN(S(=O)(=O)c4ccc(Cl)cc4)C3)ccn2)[nH]c1C [Example 221, 4-(1-(4-Chlorophenylsulfonyl)-1,2,5,6-tetrahydropyridin-3-yl)-2-(4,5-dimethyl-1H-imidazol-2-yl)pyridine trifluoroacetate salt] | 
19 | ≤ 100 | 300 to 1000 | ≤ 50 | Cc1nc(-c2cc(-c3cncc(C(=O)N4CCCCC4C)c3)ccn2)[nH]c1C (racemic) [Example 190, 2′-(4,5-Dimethyl-1H-imidazol-2-yl)-5-[(2-methylpiperidin-1-yl)carbonyl]-3,4′-bipyridine trifluoroacetate salt] | 
20 | ≤ 50 | ≤ 300 | ≤ 50 | Cc1[nH]c(-c2cc(-c3cncc(S(C)(=O)=O)c3)ccn2)nc1C(=O)NC(C)C [Example 253, N-Isopropyl-5-methyl-2-[5-(methylsulfonyl)-3,4′-bipyridin-2′-yl]-1H-imidazole-4-carboxamide trifluoroacetate salt] | 
21 | ≤ 100 | ≤ 300 | ≤ 50 | Cc1nc(-c2cc(-c3cncc(C(=O)N4CC(C)(C)C4)c3)ccn2)[nH]c1C [Example 185, 5-[(3,3-Dimethylazetidin-1-yl)carbonyl]-2′-(4,5-dimethyl-1H-imidazol-2-yl)-3,4′-bipyridine trifluoroacetate salt] | 
22 | ≤ 50 | 300 to 1000 | ≤ 50 | Cc1[nH]c(-c2cc(-c3cncc(N4CCOCC4)c3)ccn2)nc1C(=O)N1CC(C(F)(F)F)C1 [Example 262, 2′-(5-Methyl-4-{[3-(trifluoromethyl)azetidin-1-yl]carbonyl}-1H-imidazol-2-yl)-5-morpholin-4-yl-3,4′-bipyridine] | 
23 | ≤ 50 | 300 to 1000 | ≤ 50 | CCN(C)C(=O)c1cncc(-c2ccnc(-c3nc(C)c(C)[nH]3)c2)c1 [Example 198, 2′-(4,5-Dimethyl-1H-imidazol-2-yl)-N-ethyl-N-methyl-3,4′-bipyridine-5-carboxamide trifluoroacetate salt] | 
24 | ≤ 100 | 300 to 1000 | ≤ 50 | Cc1nc(-c2cc(-c3cncc(N4CC[C@@H](O)C4)c3)ccn2)[nH]c1C [Example 231, (3R)-1-[2′-(4,5-Dimethyl-1H-imidazol-2-yl)-3,4′-bipyridin-5-yl]pyrrolidin-3-ol] | 
